The conditions of the test: 30 mg per ml solutions.

Take `CN1CC[C@]23c4c5ccc(O)c4O[C@H]2[C@@H](O)C=C[C@H]3[C@H]1C5.O=S(=O)(O)O` [Morphine sulphate]: the “effectiveness of nasal solution” value is reported as “effective”.

For the origin of these results see patent publication US7335186B2 (priority 1998, dated 2008).
